Values of other authors, collected in patent publication US8093271B2, “Anti-acid pharmaceutical composition in powder form and process for making it” (Laboratorios Bago S.A., priority 2006, dated 2012).
Where two headings read alike, the source gives them in different places.

How the values were obtained:
[1] = in water

In the case of COc1ccc2[nH]c([S+]([O-])Cc3ncc(C)c(OC)c3C)nc2c1 (stereo not shown) [omeprazole], the “time by which absorption is completed” value (absorption in the small intestine) is given as 3 to 6 h, the “time required to reach the intestine” value (fasting state) is given as 20 to 30 min and the half life ([1]; pH near 7) is given as “about 14 hours”. The half life ([1]; pH of 4) was “lower than 10 minutes”.
